Experimental data from patent US20250011311A1, “AMIDO HETEROAROMATIC COMPOUNDS” (AstraZeneca AB, priority 2022, published 2025).

Assays:
[1] = molecular target: recombinant 17bHSD13 (N2-K300) (Homo sapiens (Human), UniProt Q7Z5P4); assay: In Vitro 17bHSD13 Enzyme Assay; type: biochemical; conditions: 80 nM 17bHSD13, 0.5 mM NAD, 20 μM Estradiol, 2.5 h; estradiol to estrone by LC-MS/MS
Outline: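 Human 17bHSD13 (N2-K300, 80 nM) with 0.5 mM NAD, 20 μM estradiol and varied compound in 50 mM Tris-Cl pH 7.4, 5 mM EDTA, 0.01% DDM. Estrone/(estrone+estradiol) ratio read by LC-MS/MS (APCI, positive MRM). Inhibition normalised to DMSO and a known-inhibitor control; IC50 from curve fit.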

[2] = molecular target: over expressed HSD17β13 in HEK293S cells (Homo sapiens (Human), UniProt Q7Z5P4); assay: In Vitro 17bHSD13 Cell Assay; type: cell-based; conditions: HEK293S cells over expressing HSD17β13; estradiol to estrone conversion, 18 h, LC-MS/MS; read-out: 17bHSD1713 Cell assay IC50
over expressed HSD17β13 in HEK293S cells, sequence (Q7Z5P4 20-300): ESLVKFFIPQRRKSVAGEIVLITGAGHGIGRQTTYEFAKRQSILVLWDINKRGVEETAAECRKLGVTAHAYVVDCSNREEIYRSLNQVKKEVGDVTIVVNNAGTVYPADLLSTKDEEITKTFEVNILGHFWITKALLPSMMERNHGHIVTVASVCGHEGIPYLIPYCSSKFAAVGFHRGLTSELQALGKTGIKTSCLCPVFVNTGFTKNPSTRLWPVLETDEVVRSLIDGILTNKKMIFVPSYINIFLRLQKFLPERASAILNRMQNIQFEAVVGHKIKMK
Outline: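 HEK293S cells overexpressing HSD17β13 convert estradiol to estrone; product read by LC-MS/MS (APCI, positive MRM) as AUC ratio estrone/(estrone+estradiol). Effect normalised between DMSO and maximal inhibition by a known inhibitor control; IC50 from curve fit.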

[3] = molecular target: over expressed HSD17β9 in HEK293S cells (Homo sapiens (Human), UniProt Q92781); assay: In Vitro 17bHSD9 Cell Assay; type: cell-based; conditions: HEK293S cells over expressing HSD17β9; retinol to retinal conversion, 18 h, LC-MS/MS; read-out: 17bHSD9 Cell assay IC50
over expressed HSD17β9 in HEK293S cells, sequence (Q92781 whole entry): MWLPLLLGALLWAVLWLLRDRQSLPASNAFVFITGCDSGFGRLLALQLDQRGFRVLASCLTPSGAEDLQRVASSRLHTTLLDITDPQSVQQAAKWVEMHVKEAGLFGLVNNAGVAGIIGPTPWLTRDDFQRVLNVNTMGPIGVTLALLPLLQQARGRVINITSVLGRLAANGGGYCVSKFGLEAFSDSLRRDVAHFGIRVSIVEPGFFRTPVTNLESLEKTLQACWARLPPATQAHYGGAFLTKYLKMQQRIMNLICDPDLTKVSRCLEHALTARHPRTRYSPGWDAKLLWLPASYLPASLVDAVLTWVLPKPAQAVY
Outline: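 HEK293S cells overexpressing HSD17β9 were plated at 10K cells/well in DMEM + 10% FBS and cultured 18 h. Retinol-to-retinal conversion in media was quantified by LC-MS/MS (MRM) as retinal/(retinal + retinol). IC50 was fitted after normalisation to DMSO and full inhibition by a reference inhibitor.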

CYP2C9 = CYP2C9 (Homo sapiens (Human), UniProt P11712); assay: Assay B: Cytochrome P450 Inhibition 2C9
CYP2C9, sequence (P11712 whole entry): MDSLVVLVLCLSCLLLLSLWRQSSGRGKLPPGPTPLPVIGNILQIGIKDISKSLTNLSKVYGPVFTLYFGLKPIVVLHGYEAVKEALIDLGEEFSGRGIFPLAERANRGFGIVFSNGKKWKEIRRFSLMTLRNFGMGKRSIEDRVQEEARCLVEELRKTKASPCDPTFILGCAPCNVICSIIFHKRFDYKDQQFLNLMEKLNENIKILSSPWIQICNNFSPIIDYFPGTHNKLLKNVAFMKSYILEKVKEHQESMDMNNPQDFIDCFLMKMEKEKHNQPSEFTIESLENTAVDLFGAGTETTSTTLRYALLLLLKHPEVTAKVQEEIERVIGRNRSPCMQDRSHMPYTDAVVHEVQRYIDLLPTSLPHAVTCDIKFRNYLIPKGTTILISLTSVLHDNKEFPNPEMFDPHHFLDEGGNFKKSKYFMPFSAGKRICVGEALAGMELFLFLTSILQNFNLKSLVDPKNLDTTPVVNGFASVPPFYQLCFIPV
Experimental: A fluorescence-based method in 96-well format was used to determine the inhibition of 2C9 (Crespi, C. L. et al., Microtiter plate assays for inhibition of human, drug-metabolizing cytochromes P450. Anal Biochem 1997, 248 (1), 188-190. DOI: 10.1006/abio.1997.2145, which is incorporated herein by reference). The recombinant human enzymes used were prepared in house, except for CYP2D6 (CYPEX LTD, Dundee, UK). Different coumarin substrates, biotransformed into fluorescent metabolites, were used as probes for each individual CYP. A fluorescence plate reader (SPECTRAMAX GEMINIXS, MOLECULAR DEVICES, Sunnyvale, California, USA) was used to measure the levels of metabolites formed. A dilution series of the test substrates was prepared at eight different concentrations. For each CYP, a mixture of the enzyme, corresponding coumarin substrate, potassium phosphate buffer pH 7.4 and water (concentrations and volumes were CYP-dependent) were added to each well in a black 96-well plate. The test substrates at different concentrations were added. After 10 min pre-incubation, the co-factor NADPH was added to initiate the reaction. After 20-50 min (CYP and substrate-dependent) the reaction was terminated by addition of trisbase/MeCN (20:80). The plates were transferred to the fluorescence plate reader where the wavelengths were set individually for the different coumarin substrates and their respective fluorescent metabolite. The responses were exported to Excel where the IC50 curves were plotted (percent inhibition versus concentration) and IC50 values calculated for each test substrate and enzyme using XL-fit.

[4] = molecular target: recombinant 17bHSD4 (M1-N311) (Homo sapiens (Human), UniProt P51659); assay: In Vitro 17bHSD4 Enzyme Assay; type: biochemical; conditions: 40 nM 17bHSD4, 0.125 mM NAD, 15 μM Estradiol, 1.5 h; NADH fluorescence; read-out: 17HSD17b4 Enzyme assay IC50
recombinant 17bHSD4 (M1-N311), sequence (P51659 1-311): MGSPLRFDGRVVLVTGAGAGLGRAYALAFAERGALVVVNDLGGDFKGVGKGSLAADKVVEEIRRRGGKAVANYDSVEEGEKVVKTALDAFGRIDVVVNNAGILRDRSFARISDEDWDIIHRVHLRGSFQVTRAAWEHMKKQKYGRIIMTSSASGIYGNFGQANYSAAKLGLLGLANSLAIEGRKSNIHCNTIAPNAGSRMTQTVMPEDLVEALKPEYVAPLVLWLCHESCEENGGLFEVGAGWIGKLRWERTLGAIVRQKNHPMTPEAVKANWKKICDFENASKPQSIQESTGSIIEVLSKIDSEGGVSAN
Experimental: In Vitro 17bHSD4 Enzyme Assay
10 concentration of compounds (0.2 μl) in DMSO was added to GREINER FLUOTRAC 200 384 well plate (781076) using ECHO dispensing (BECKMAN COULTER). 80 nl of 10 mM Estradiol (SIGMA, E8875) was added using Echo dispensing. The enzyme reaction was initiated by addition, using MULTIDROP COMBI dispensing (THERMO FISHER), of 40 μl of a mix containing recombinant 17bHSD4 (M1-N311) and NAD. Final assay conditions were 40 nM of 17bHSD4, 0.125 mM of NAD, 15 μM Estradiol and various concentrations of compound in buffer (5 mM EDTA (TEKNOVA E0306), 0.01% DDM (AFFYMETRIX D310) in 50 mM Tris-Cl, pH 7.4). After each addition plates were centrifuged for 1 min at 150×g (EPPENDORF, 5810R, A-4-81). NADH formation was measured by fluorescence intensity (FI) (Ex360/Em460) at time zero (to) and at 1.5 h (t1) in a PHERASTAR FSX (BMG LABTECH). FI for each sample was calculated as FI at t1 minus FI at t0.
[…] […] was used for curve fitting and calculation of IC50 values.
Compound effect was calculated with the formula below;
where X represents the effect in the presence of test compound, min is DMSO and max is the maximum inhibition of enzyme using a known inhibitor as control.

human hepatocytes = assay: Assay A: Metabolic Stability in Human Hepatocytes; type: in vitro ADME; conditions: cryopreserved human hepatocytes, 10^6 viable cells/mL, 1 μM compound, 37° C.
Experimental: Assay A: Metabolic Stability in Human Hepatocytes
Hepatocyte metabolic stability was determined in accordance with the method described by Jacobson et al., An optimized automated assay for determination of metabolic stability using hepatocytes: assay validation, variance component analysis, and in vivo relevance. Assay Drug Dev Technol 2007, 5 (3), 403-415. DOI: 10.1089/adt.2007.059, which is incorporated herein by reference. Cryopreserved hepatocytes at a concentration of 10^6 viable cells/mL were used. After thawing, hepatocytes were incubated for 10 min to warm to 37° C. and test compounds, dissolved in acetonitrile, were added to give a final concentration of 1 μM. At 0.5, 5, 15, 30, 45, 60, 80, 100 and 120 min, the incubation system was mixed and 20 μL aliquots were transferred at each time point to wells in a separate plate filled with 80 μL MeCN to stop the reaction. The quenching plate was then vortexed followed by centrifugation, and supernatants were analyzed by LC-MS/MS. Peak areas were determined from extracted ion chromatograms, and the in vitro intrinsic clearance (in vitro CLint, in μL/min/10^6 cells) of parent compound was calculated from the slope in the regression analysis of the natural logarithm of parent concentration vs time curve.

recombinant 17bHSD13 (N2-K300), sequence (Q7Z5P4 2-300): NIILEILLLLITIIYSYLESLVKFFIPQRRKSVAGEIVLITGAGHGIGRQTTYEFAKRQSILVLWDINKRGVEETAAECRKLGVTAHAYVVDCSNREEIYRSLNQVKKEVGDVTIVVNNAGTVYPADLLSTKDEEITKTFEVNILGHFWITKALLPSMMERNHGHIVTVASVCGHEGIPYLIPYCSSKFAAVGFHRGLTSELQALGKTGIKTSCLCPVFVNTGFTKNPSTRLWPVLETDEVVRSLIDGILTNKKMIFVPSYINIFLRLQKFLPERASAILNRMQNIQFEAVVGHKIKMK

SMILES	IC50 [1] [µM]	IC50 [2] [µM]	IC50 [3] [µM]	IC50 (CYP2C9) [µM]	IC50 [4] [µM]	Assay A: Human Heps Met Clint GMean CLint (μl/min/1E6) (human hepatocytes)
CN(C(=O)c1cc(-c2ccc(F)c(O)c2)no1)c1ccnn1C1CCCCC1 [Example 5, N-(1-Cyclohexyl-1H-pyrazol-5-yl)-3-(4-fluoro-3-hydroxyphenyl)-N-methylisoxazole-5-carboxamide]	0.093	2.61	> 50	3		
CN(C(=O)c1cc(-c2ccc(F)c(O)c2)on1)c1ccnn1C1CCCCC1 [Example 7, N-(1-Cyclohexyl-1H-pyrazol-5-yl)-5-(4-fluoro-3-hydroxyphenyl)-N-methylisoxazole-3-carboxamide]	0.083	5.05		8.4	> 50	
O=C(Nc1ccnn1C1CCCCC1)c1cnc(-c2ccc(F)c(O)c2)o1 [Example 12, N-(1-Cyclohexyl-1H-pyrazol-5-yl)-2-(4-fluoro-3-hydroxyphenyl)oxazole-5-carboxamide]	4.33	> 50		21.2		
N#Cc1c(C(=O)N2CCN(c3ccc4nnc(C(F)(F)F)n4n3)CC2)noc1-c1cc(F)c(F)c(O)c1F [Example 17, 5-(2,4,5-Trifluoro-3-hydroxyphenyl)-3-(4-(3-(trifluoromethyl)-[1,2,4]triazolo[4,3-b]pyridazin-6-yl)piperazine-1-carbonyl)isoxazole-4-carbonitrile]	0.525	3.1		0.2		6.5
N#Cc1c(C(=O)N2CCC(O)(C(F)(F)F)CC2)noc1-c1cc(F)c(F)c(O)c1F [Example 26, 3-(4-Hydroxy-4-(trifluoromethyl)piperidine-1-carbonyl)-5-(2,4,5-trifluoro-3-hydroxyphenyl)isoxazole-4-carbonitrile]	0.278	2.97		4.4		9.2
N#Cc1c(C(=O)N2CC(F)(C3CC3)C2)noc1-c1cc(F)c(F)c(O)c1F [Example 27, 3-(3-Cyclopropyl-3-fluoroazetidine-1-carbonyl)-5-(2,4,5-trifluoro-3-hydroxyphenyl)isoxazole-4-carbonitrile]	0.382	4.09		3.1		14.0
O=C(c1noc(-c2cc(F)c(F)c(O)c2F)n1)N1CCC(Oc2cccnc2)CC1 [Example 70, (4-(Pyridin-3-yloxy)piperidin-1-yl)(5-(2,4,5-trifluoro-3-hydroxyphenyl)-1,2,4-oxadiazol-3-yl)methanone]	0.242	2.22		18.4		12.4
O=C(c1noc(-c2cc(F)c(F)c(O)c2F)n1)N1CC2CC2(c2ccccc2)C1 (stereo not drawn) [Example 77, (1-Phenyl-3-azabicyclo[3.1.0]hexan-3-yl)(5-(2,4,5-trifluoro-3-hydroxyphenyl)-1,2,4-oxadiazol-3-yl)methanone]	0.075	0.17		0.3		13.4
O=C(c1noc(-c2cc(F)c(F)c(O)c2F)n1)N1CCC(c2ccccc2)C1 (stereo not drawn) [Example 96, (3-Phenylpyrrolidin-1-yl)(5-(2,4,5-trifluoro-3-hydroxyphenyl)-1,2,4-oxadiazol-3-yl)methanone]	0.047	0.17	17.3	1.3	18	
O=C(c1noc(-c2cc(F)c(F)c(O)c2F)n1)N1CC[C@@H](c2ccc(Cl)cc2)C1 [Example 103, (S)-(3-(4-Chlorophenyl)pyrrolidin-1-yl)(5-(2,4,5-trifluoro-3-hydroxyphenyl)-1,2,4-oxadiazol-3-yl)methanone]	0.026	0.53	24.9	0.8	6.5	
C[C@@H]1CN(C(=O)c2noc(-c3cc(O)c(F)c(F)c3)n2)C[C@H](C)O1 [Example 116, (5-(3,4-Difluoro-5-hydroxyphenyl)-1,2,4-oxadiazol-3-yl)((2R,6S)-2,6-dimethylmorpholino)methanone]	0.117	0.06	> 50		> 50	
